{"source": "patent US4605643A", "about": "“Ovine GRF” (The Salk Institute for Biological Studies, priority 1984, dated 1986)", "system": "rat pituitary cells", "experiment": "in vitro release of growth hormone from cultured rat pituitary cells (ir GH by radioimmunoassay), side-by-side with hGRF(1-44)-NH2", "type": "cell-based", "method": "To determine the effectiveness of the peptide to promote the release of growth hormone, in vitro assays are carried out using synthetic hGRF(1-44)-NH2 in side-by-side comparison with equimolar concentrations of the extracted and purified oGRF(1-44) of Example II. hGRF thus serves as a GRF Reference Standard having a known effectiveness to promote the release of growth hormone from rat pituitary cells. Cultures are used which include cells of rat pituitary glands removed some four to five days previously. Both cultures of a defined standard medium and cultures which are considered optimal for the secretion of growth hormone are used for the comparative testing, in the general manner described in Brazeau, et al. Regulatory Peptides, 1, 255, 1981. Incubation with the substance to be tested is carried out for 3 to 4 hours, and aliquots of the culture medium are removed and processed to measure their contents in immunoreactive GH(ir GH) by a well-characterized radioimmunoassay.", "key": {"[1]": {"details": "equimolar ratios, incubation 3 to 4 hours, ir GH in culture medium by RIA"}, "[2]": {"details": "multiple doses factorial design experiments"}}}
{"smiles": "CC[C@H](C)[C@H](NC(=O)[C@H](C)NC(=O)[C@H](CC(=O)O)NC(=O)[C@H](C)NC(=O)[C@@H](N)Cc1ccc(O)cc1)C(=O)N[C@@H](Cc1ccccc1)C(=O)N[C@H](C(=O)N[C@@H](CC(N)=O)C(=O)N[C@@H](CO)C(=O)N[C@@H](Cc1ccc(O)cc1)C(=O)N[C@@H](CCCNC(=N)N)C(=O)N[C@@H](CCCCN)C(=O)N[C@H](C(=O)N[C@@H](CC(C)C)C(=O)NCC(=O)N[C@@H](CCC(N)=O)C(=O)N[C@@H](CC(C)C)C(=O)N[C@@H](CO)C(=O)N[C@@H](C)C(=O)N[C@@H](CCCNC(=N)N)C(=O)N[C@@H](CCCCN)C(=O)N[C@@H](CC(C)C)C(=O)N[C@@H](CC(C)C)C(=O)N[C@@H](CCC(N)=O)C(=O)N[C@@H](CC(=O)O)C(=O)N[C@H](C(=O)N[C@@H](CCSC)C(=O)N[C@@H](CC(N)=O)C(=O)N[C@@H](CCCNC(=N)N)C(=O)N[C@@H](CCC(N)=O)C(=O)N[C@@H](CCC(N)=O)C(=O)NCC(=O)N[C@@H](CCC(=O)O)C(=O)N[C@@H](CCCNC(=N)N)C(=O)N[C@@H](CC(N)=O)C(=O)N[C@@H](CCC(N)=O)C(=O)N[C@@H](CCC(=O)O)C(=O)N[C@@H](CCC(N)=O)C(=O)NCC(=O)N[C@@H](C)C(=O)N[C@@H](CCCCN)C(=O)N[C@H](C(=O)N[C@@H](CCCNC(=N)N)C(=O)N[C@@H](CC(C)C)C(N)=O)C(C)C)[C@@H](C)CC)[C@@H](C)CC)[C@@H](C)O", "note": "[oGRF(1-44)]", "values": [{"measurement": "intrinsic biological activity (release of growth hormone) compared with synthetic hGRF(1-44)-NH2", "setting": "[1]", "result": "full intrinsic biological activity of the synthetic peptide"}, {"measurement": "potency (release of growth hormone) compared with synthetic hGRF(1-44)-NH2", "setting": "[1]", "result": "close to the same potency"}, {"measurement": "intrinsic activity compared with hGRF(1-44)-NH2", "setting": "[2]", "result": "about the same intrinsic activity as hGRF(1-44)-NH2"}, {"measurement": "specific activity relative to hGRF(1-44)-NH2", "setting": "[2]", "result": "about 70 % of hGRF(1-44)-NH2"}]}
